≈ marks a conversion by molar mass, not a printed value.
Experiments:
rat ileum [1] = assay: Rat ileum contraction induced by increasing concentrations of barium ion (musculotropic antispasmodic effect)
Procedure: (§1) An isolated vicenin 2 compound was tested for its antispasmodic effect with respect to the cholinergic system and with respect to nonspecific contraction mediated by Ba^++. Therefore, rat ileum was precontracted with increasing concentrations of either acetylcholine or Ba^++. The shift of either concentration response curve by the compound was determined. […] The dose of vicenin 2 for humans was estimated to be between 5 and 15 μg/70 kg b.w. which will correspond to 0.071 and 0.214 μg/kg b.w. Due to the increased metabolism in rodents compared to humans the doses were calculated as approx. between 0.5 and 1.49 μg/kg b.w. The central (blood) compartment (hydrophilic extracts) is approx. 7% of whole body volume, i.e. between 0.5/70 g and 1.4 μg/70 g blood. Since blood is in direct contact with ileum, a concentration of 7 to 20.86 μg/kg (0.007 to 0.021 μg/g) is expected for ileum. […] Therefore, it was reasonable to translate these in vivo calculations into the in vitro experiments and in these experiments 10 and 100 μl of a stock solution per 10 ml incubation bath were used. […] Under a protocol approved by the Animal Care and Use Committee of Munster, Germany, male and female rats (Charles River, Sulzfeld, Germany) weighing 200 to 320 g were used. The rats were anesthetized (CO2). The proximal ileum was removed, washed and placed in Krebs-Henseleit solution. 1 cm segments were placed in 10 mL organ baths with a resting tension of 1.0 g (preload). One end was attached to a force displacement transducer (lever transducer B40, Typ 373) combined with a two-channel amplifier (type 301, Hugo Sachs Elektronik, March, Germany); for the recording of tension changes a multi-pen recorder was used (Rikadenki Kogyo, Tokio, Japan). The composition of Krebs-Henseleit solution was (mM): […] The solution was kept at 37° C., pH 7.4 and gassed with carbogen (a 95% O2/5% CO2 mixture). Equilibration time for the ileum before starting the experiment was at least 30 min. After the tissues had been pre-treated with the extracts for 3 min cumulative concentration response curves using either acetylcholine or barium ion were recorded isotonically in the organ bath, and the effect was allowed to reach a steady state at each concentration. The results were normalized to 100% (maximum effect of either acetylcholine or barium ion alone). Differences between entire curves were obtained by comparing F-values of the best fitted curves by using GraphPad-Prism (version 3.00, GraphPad Software, Inc., 1999). P<0.05 was regarded as statistically significant.

rat ileum [2] = assay: Rat ileum contraction, effect of the compound on its own (spasmolytic effect); conditions: data as % of maximum acetylcholine effect; FIG. 1
Procedure: An isolated vicenin 2 compound was tested for its antispasmodic effect with respect to the cholinergic system and with respect to nonspecific contraction mediated by Ba^++. Therefore, rat ileum was precontracted with increasing concentrations of either acetylcholine or Ba^++. The shift of either concentration response curve by the compound was determined. […] The dose of vicenin 2 for humans was estimated to be between 5 and 15 μg/70 kg b.w. which will correspond to 0.071 and 0.214 μg/kg b.w. Due to the increased metabolism in rodents compared to humans the doses were calculated as approx. between 0.5 and 1.49 μg/kg b.w. The central (blood) compartment (hydrophilic extracts) is approx. 7% of whole body volume, i.e. between 0.5/70 g and 1.4 μg/70 g blood. Since blood is in direct contact with ileum, a concentration of 7 to 20.86 μg/kg (0.007 to 0.021 μg/g) is expected for ileum. […] Therefore, it was reasonable to translate these in vivo calculations into the in vitro experiments and in these experiments 10 and 100 μl of a stock solution per 10 ml incubation bath were used. […] After the tissues had been pre-treated with the extracts for 3 min cumulative concentration response curves using either acetylcholine or barium ion were recorded isotonically in the organ bath, and the effect was allowed to reach a steady state at each concentration. […]

[3] = test system: murine frontal cortex networks; assay: Cortical network activity in vitro, electrophysiological multi-channel recordings on MEA neurochips; format: cell-based, mice
Source text: Purpose of this example was the evaluation of the acute neuroactive effects of vicenin 2 (named AUC-V) on the neuronal activity of murine frontal cortex networks in vitro by means of electrophysiological multi-channel recordings.
Therefore, in a first step the dose-effect curve of vicenin 2 was plotted by means of cumulatively increasing the substance concentration, so that the spectrum of activity of the substance is optimally covered with 9 concentrations. Concentration from 100 fg/ml, 10 pg/ml, […], 1 ng/ml, 100 ng/ml, 1 μg/ml, 10 μg/ml, 100 μg/ml and 300 μg/ml were used.
Subsequently, the measurements of the dose-effect curve of the test substances were repeated at least 10 times. The recorded electrical activity patterns were characterized by 200 features and their changes were statistically evaluated.
The microelectrode array neurochips (MEA neurochips) were provided by the Center for Network Neuroscience (CNNS) at the University of North Texas. These 5×5 cm^2 glass chips have a central recording matrix with 64 passive electrodes and indium tin oxide conductors. The hydrophobic insulation material surface was activated by a brief butane flame pulse through a stainless steel mask. Thus, cell attachment on a confined adhesive region (5 mm diameter centered on the electrode array) is ensured. The activated surface regions were coated with poly-D-lysine (25 μg/ml; 30-70 kD) and laminin (16 μg/ml). Fabrication techniques and culture methods have been described previously.
Frontal cortex tissue was harvested from embryonic day 15, or day 14 chr:NMRI mice. After ethyl ether anesthesia, mice were sacrificed by cervical dislocation according to the German Animal Protection Act §4. […] Cultures were incubated at 37° C. in a 10% CO2 atmosphere until ready for use, which usually is four weeks to three months after seeding. […]
For extracellular recording, MEA neurochips were placed into sterilized constant-bath recording chambers and maintained at 37° C. […] The signals routinely recorded by these neurochips are located in a range of 15-1800 μV. […]

rat ileum [4] = assay: Rat ileum contraction induced by increasing concentrations of acetylcholine (neurotropic antispasmodic effect)
Procedure: as §1

[5] = test system: murine frontal cortex networks; assay: Pattern recognition classification of activity patterns against the NeuroProof database (105 substances); format: cell-based, mice; conditions: AUC-V, all 143
Procedure: Afterwards, a further analysis was carried out through a pattern-recognition analysis and through comparison with NeuroProof database to determine relevant mechanisms involved in the frontal cortex activity pattern induced changes by each substance.
To clarify the mode of action of the test substance on the activity of cortical networks these experiments were further analyzed using methods of pattern recognition. For each stable concentration activity phase we normalized the 200 spike train parameters by the native reference activity.
Using a feature selection algorithm, on the basis of the reference substances, the 40 most descriptive parameters for all 200 spike train parameters were selected. The rankings of activity features using various score methods based on classification experiments and compared their total correct predictions were calculated. In this manner, the best results for a MDL (minimal description length) modified algorithm were obtained. A training data set with these 40 spike train parameters was established in the form of data records from the reference substances. An artificial neuronal network, multi layer feed forward network and back propagation algorithm […] hidden units was then trained. The respective data records of the four substances were all subsequently classified. A classification against 105 substances in the database was carried out.
The classification against 105 substances using the electrophysiological multi-channel recording of vicenin 2 and the 105 substances identified several activities for vicenin 2.

[6] = Solubility of isolated vicenin 2; format: physicochemical

Structure (SMILES): O=c1cc(-c2ccc(O)cc2)oc2c([C@@H]3O[C@H](CO)[C@@H](O)[C@H](O)[C@H]3O)c(O)c([C@@H]3O[C@H](CO)[C@@H](O)[C@H](O)[C@H]3O)c(O)c12 [vicenin 2, 5,7-Dihydroxy-2-(4-hydroxyphenyl)-6,8-bis[(2S,3R,4R,5S,6R)-3,4,5-trihydroxy-6 (hydroxymethyl)oxan-2-yl]chromen-4-one]
- shift of the Ba++ concentration response curve (rat ileum [1]; 0.005 mg/ml final bath concentration, FIG. 4): shifted the Ba^++ curve downwards
- shift of the Ba++ concentration response curve (rat ileum [1]; 0.005 mg/ml final bath concentration, FIG. 4, listed as AUC-V): significantly different from the acetylcholine curve without additions
- shift of the Ba++ concentration response curve (rat ileum [1]; 0.05 mg/ml final bath concentration, FIG. 5): rightward and downward shift of the Ba^++ curve
- shift of the Ba++ concentration response curve (rat ileum [1]; 0.05 mg/ml final bath concentration, FIG. 5, listed as AUC-V): significantly different from the acetylcholine curve with no further additions
- effect on rat ileum contraction from its own (direct spasmolytic effect) (rat ileum [2]): slight (not significant) relaxation
- effect on burst structure of the network [3]: no affects on the burst structure
- EC50 ([3]; Mus musculus, 9 accumulating concentrations, FIG. 6, read-out: EC50 of decrease of the cortical network activity (spike rate)): 2 µg/mL (≈ 3.36 µM)
- maximum decrease of the cortical network activity ([3]; remaining activity, FIG. 6): 80 % of the native activity
- shift of the acetylcholine concentration response curve (rat ileum [4]; 0.005 mg/ml final bath concentration, FIG. 2): shifted the acetylcholine curve to the right in a competitive manner
- shift of the acetylcholine concentration response curve (rat ileum [4]; 0.005 mg/ml final bath concentration, FIG. 2, listed as AUC-V): significantly different from the acetylcholine curve
- shift of the acetylcholine concentration response curve (rat ileum [4]; 0.05 mg/ml final bath concentration, FIG. 3): stronger rightward and downward shift of the acetylcholine curve
- shift of the acetylcholine concentration response curve (rat ileum [4]; 0.05 mg/ml final bath concentration, FIG. 3, listed as AUC-V): significantly different from the acetylcholine curve
- data records classified as the respective substance ([5]; classified as Amisulpride): 15%
- data records classified as the respective substance ([5]; classified as Atropinemethylbromide): 12%
- data records classified as the respective substance ([5]; classified as DPDPE): 11%
- data records classified as the respective substance ([5]; classified as Enkephalin): 14%
- data records classified as the respective substance ([5]; classified as Eserine): 15%
- data records classified as the respective substance ([5]; classified as Indatraline): 12%
- data records classified as the respective substance ([5]; classified as Modafinil): 12%
- data records classified as the respective substance ([5]; classified as Nicotine): 12%
- data records classified as the respective substance ([5]; classified as Olanzapine): 17%
- data records classified as the respective substance ([5]; classified as Sodium dodecyl sulfate): 12%
- solubility [6]: good solubility

Structure (SMILES): COc1ccc(Cc2nccc3cc(OC)c(OC)cc23)cc1OC [Papaverine, reference compound]
- shift of the Ba++ concentration response curve (rat ileum [1]; positive control, 4×10^−2 g/ml, FIG. 4): expected non-competitive musculotropic antispasmodic effect
- shift of the Ba++ concentration response curve (rat ileum [1]; positive control, 4×10^−2 g/ml, FIG. 4, listed as papaverine): significantly different from the acetylcholine curve without additions

Structure (SMILES): CN1[C@@H]2CC[C@H]1C[C@@H](OC(=O)C(CO)c1ccccc1)C2 (stereo partly drawn) [Atropine, reference compound]
- shift of the acetylcholine concentration response curve (rat ileum [4]; positive control, 5×10^−5 mg/ml, FIG. 2): expected competitive neurotropic antispasmodic effect
- shift of the acetylcholine concentration response curve (rat ileum [4]; positive control, 5×10^−5 mg/ml, FIG. 2, listed as atropine): significantly different from the acetylcholine curve

— patent US9125926B2, “Vicenin 2 and analogues thereof for use as an antispasmodic and/or prokinetic agent” (priority 2011, dated 2015)
